According to the supplement of paper PMC10307832:

Experiments:
Experiment in all cases: relative viability (nuclei count vs DMSO), 5 days (fraction); higher = more cells survive
[1] = compound: CN(c1ncccc1CNc1nc(Nc2ccc3c(c2)CC(=O)N3)ncc1C(F)(F)F)S(C)(=O)=O + NC(=O)Nc1cc(-c2cccc(F)c2)sc1C(=O)N[C@H]1CCCNC1 [AZD7762] (partner 0.2 µM)
Method in brief: (§1)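 Each reported value is a median over duplicate plates. It expresses relative viability: treated-well nuclei count divided by vehicle-well nuclei count. Lung cancer cell lines in 1536-well plates were dosed by pin tool a day after seeding, alone with one drug or with a fixed anchor-drug dose plus five library-drug doses (not always all listed) in √10 steps, and nuclei were counted after 5 days.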

[2] = compound: CN(c1ncccc1CNc1nc(Nc2ccc3c(c2)CC(=O)N3)ncc1C(F)(F)F)S(C)(=O)=O + Nc1nc2[nH]cc(CCc3ccc(C(=O)N[C@@H](CCC(=O)O)C(=O)O)cc3)c2c(=O)[nH]1 [Pemetrexed] (partner 0.2 µM)
Method in brief: as §1

[3] = compound: CN(c1ncccc1CNc1nc(Nc2ccc3c(c2)CC(=O)N3)ncc1C(F)(F)F)S(C)(=O)=O + COc1cccc2cc(-c3nc([C@H]4CC[C@H](C(=O)O)CC4)n4ncnc(N)c34)[nH]c12 [OSI-027] (partner 0.5 µM)
Method in brief: as §1

[4] = compound: CN(c1ncccc1CNc1nc(Nc2ccc3c(c2)CC(=O)N3)ncc1C(F)(F)F)S(C)(=O)=O + COc1cc2c(Oc3ccc(NC(=O)C4(C(=O)Nc5ccc(F)cc5)CC4)cc3F)ccnc2cc1OCCCN1CCOCC1 [Foretinib] (partner 0.25 µM)
Method in brief: as §1

NCI-H1793 was tested, and the relative viability ([1]; first compound 0.01 µM) was 0.407, the relative viability ([1]; first compound 0.03162 µM) was 0.541 and the relative viability ([1]; first compound 0.1 µM) was 0.543. For the same cell line, the relative viability ([1]; first compound 0.3162 µM) was 0.53, the relative viability ([1]; first compound 1 µM) was 0.452 and the relative viability ([2]; first compound 0.01 µM) was 1.05. For the same cell line, the relative viability ([2]; first compound 0.03162 µM) was 0.912, the relative viability ([2]; first compound 0.1 µM) was 0.934 and the relative viability ([2]; first compound 0.3162 µM) was 0.919. The relative viability ([2]; first compound 1 µM) was 0.931, the relative viability ([3]; first compound 0.01 µM) was 0.238 and the relative viability ([3]; first compound 0.03162 µM) was 0.276. It also gave a relative viability ([3]; first compound 0.1 µM) of 0.246, a relative viability ([3]; first compound 0.3162 µM) of 0.288 and a relative viability ([3]; first compound 1 µM) of 0.297. The relative viability ([4]; first compound 0.01 µM) was 0.58, the relative viability ([4]; first compound 0.03162 µM) was 0.641 and the relative viability ([4]; first compound 0.1 µM) was 0.667. The relative viability ([4]; first compound 0.3162 µM) was 0.449 and the relative viability ([4]; first compound 1 µM) was 0.523.

Work on HCC-827 yielded a relative viability ([1]; first compound 0.01 µM) of 0.202, a relative viability ([1]; first compound 0.03162 µM) of 0.227 and a relative viability ([1]; first compound 0.1 µM) of 0.25. For the same cell line, the relative viability ([1]; first compound 0.3162 µM) was 0.284, the relative viability ([1]; first compound 1 µM) was 0.331 and the relative viability ([2]; first compound 0.01 µM) was 0.248. For the same cell line, the relative viability ([2]; first compound 0.03162 µM) was 0.269, the relative viability ([2]; first compound 0.1 µM) was 0.257 and the relative viability ([2]; first compound 0.3162 µM) was 0.294. For the same cell line, the relative viability ([2]; first compound 1 µM) was 0.313, the relative viability ([3]; first compound 0.01 µM) was 0.765 and the relative viability ([3]; first compound 0.03162 µM) was 0.775. For the same cell line, the relative viability ([3]; first compound 0.1 µM) was 0.821, the relative viability ([3]; first compound 0.3162 µM) was 0.799 and the relative viability ([3]; first compound 1 µM) was 0.759. It also gave a relative viability ([4]; first compound 0.01 µM) of 0.985, a relative viability ([4]; first compound 0.03162 µM) of 1.05 and a relative viability ([4]; first compound 0.1 µM) of 1.15. For the same cell line, the relative viability ([4]; first compound 0.3162 µM) was 1.04 and the relative viability ([4]; first compound 1 µM) was 1.05.

In the case of HCC-78, the relative viability ([1]; first compound 0.01 µM) is reported as 0.859, the relative viability ([1]; first compound 0.03162 µM) is reported as 0.646 and the relative viability ([1]; first compound 0.1 µM) is reported as 0.644. For the same cell line, the relative viability ([1]; first compound 0.3162 µM) was 0.565, the relative viability ([1]; first compound 1 µM) was 0.521 and the relative viability ([2]; first compound 0.01 µM) was 0.907. For the same cell line, the relative viability ([2]; first compound 0.03162 µM) was 0.922, the relative viability ([2]; first compound 0.1 µM) was 0.921 and the relative viability ([2]; first compound 0.3162 µM) was 0.922. For the same cell line, the relative viability ([2]; first compound 1 µM) was 0.929, the relative viability ([3]; first compound 0.01 µM) was 0.378 and the relative viability ([3]; first compound 0.03162 µM) was 0.399. The relative viability ([3]; first compound 0.1 µM) was 0.36, the relative viability ([3]; first compound 0.3162 µM) was 0.421 and the relative viability ([3]; first compound 1 µM) was 0.353. The relative viability ([4]; first compound 0.01 µM) was 0.543, the relative viability ([4]; first compound 0.03162 µM) was 0.571 and the relative viability ([4]; first compound 0.1 µM) was 0.533. It also gave a relative viability ([4]; first compound 0.3162 µM) of 0.562 and a relative viability ([4]; first compound 1 µM) of 0.514.

In the case of NCI-H2085, the relative viability ([1]; first compound 0.01 µM) is reported as 1, the relative viability ([1]; first compound 0.03162 µM) is reported as 1.02 and the relative viability ([1]; first compound 0.1 µM) is reported as 1.02. The relative viability ([1]; first compound 0.3162 µM) was 1.07, the relative viability ([1]; first compound 1 µM) was 1.03 and the relative viability ([2]; first compound 0.01 µM) was 0.917. The relative viability ([2]; first compound 0.03162 µM) was 0.774, the relative viability ([2]; first compound 0.1 µM) was 0.885 and the relative viability ([2]; first compound 0.3162 µM) was 0.953. It also gave a relative viability ([2]; first compound 1 µM) of 0.947, a relative viability ([3]; first compound 0.01 µM) of 0.77 and a relative viability ([3]; first compound 0.03162 µM) of 0.907. It also gave a relative viability ([3]; first compound 0.1 µM) of 0.735, a relative viability ([3]; first compound 0.3162 µM) of 0.734 and a relative viability ([3]; first compound 1 µM) of 0.749. It also gave a relative viability ([4]; first compound 0.01 µM) of 0.878, a relative viability ([4]; first compound 0.03162 µM) of 0.925 and a relative viability ([4]; first compound 0.1 µM) of 0.906. For the same cell line, the relative viability ([4]; first compound 0.3162 µM) was 0.824 and the relative viability ([4]; first compound 1 µM) was 0.748.

For NCI-H1648, the relative viability ([1]; first compound 0.01 µM) was 0.66, the relative viability ([1]; first compound 0.03162 µM) was 0.588 and the relative viability ([1]; first compound 0.1 µM) was 0.535. It also gave a relative viability ([1]; first compound 0.3162 µM) of 0.551, a relative viability ([1]; first compound 1 µM) of 0.677 and a relative viability ([2]; first compound 0.01 µM) of 0.66. It also gave a relative viability ([2]; first compound 0.03162 µM) of 0.707, a relative viability ([2]; first compound 0.1 µM) of 0.604 and a relative viability ([2]; first compound 0.3162 µM) of 0.694. The relative viability ([2]; first compound 1 µM) was 0.422, the relative viability ([3]; first compound 0.01 µM) was 0.28 and the relative viability ([3]; first compound 0.03162 µM) was 0.237. For the same cell line, the relative viability ([3]; first compound 0.1 µM) was 0.266, the relative viability ([3]; first compound 0.3162 µM) was 0.25 and the relative viability ([3]; first compound 1 µM) was 0.24.

HCC-44 showed a relative viability ([1]; first compound 0.01 µM) of 0.948, a relative viability ([1]; first compound 0.03162 µM) of 1.02 and a relative viability ([1]; first compound 0.1 µM) of 0.969. For the same cell line, the relative viability ([1]; first compound 0.3162 µM) was 0.967, the relative viability ([1]; first compound 1 µM) was 0.964 and the relative viability ([2]; first compound 0.01 µM) was 0.668. It also gave a relative viability ([2]; first compound 0.03162 µM) of 0.622, a relative viability ([2]; first compound 0.1 µM) of 0.639 and a relative viability ([2]; first compound 0.3162 µM) of 0.65. The relative viability ([2]; first compound 1 µM) was 0.611, the relative viability ([3]; first compound 0.01 µM) was 0.575 and the relative viability ([3]; first compound 0.03162 µM) was 0.491. For the same cell line, the relative viability ([3]; first compound 0.1 µM) was 0.496 and the relative viability ([3]; first compound 1 µM) was 0.703.

Work on NCI-H2228 yielded a relative viability ([2]; first compound 0.01 µM) of 0.368, a relative viability ([2]; first compound 0.03162 µM) of 0.343 and a relative viability ([2]; first compound 0.1 µM) of 0.366. The relative viability ([2]; first compound 0.3162 µM) was 0.313, the relative viability ([2]; first compound 1 µM) was 0.355 and the relative viability ([3]; first compound 0.01 µM) was 0.825. The relative viability ([3]; first compound 0.03162 µM) was 0.827, the relative viability ([3]; first compound 0.1 µM) was 0.563 and the relative viability ([3]; first compound 0.3162 µM) was 0.514. It also gave a relative viability ([3]; first compound 1 µM) of 0.464, a relative viability ([4]; first compound 0.01 µM) of 1 and a relative viability ([4]; first compound 0.03162 µM) of 0.995. For the same cell line, the relative viability ([4]; first compound 0.1 µM) was 0.749, the relative viability ([4]; first compound 0.3162 µM) was 0.927 and the relative viability ([4]; first compound 1 µM) was 0.811.

For ABC-1, the relative viability ([1]; first compound 0.01 µM) was 0.838, the relative viability ([1]; first compound 0.03162 µM) was 0.86 and the relative viability ([1]; first compound 0.1 µM) was 0.825. For the same cell line, the relative viability ([1]; first compound 0.3162 µM) was 0.803, the relative viability ([1]; first compound 1 µM) was 1.08 and the relative viability ([3]; first compound 0.01 µM) was 0.424. For the same cell line, the relative viability ([3]; first compound 0.03162 µM) was 0.537, the relative viability ([3]; first compound 0.1 µM) was 0.432 and the relative viability ([3]; first compound 0.3162 µM) was 0.498. For the same cell line, the relative viability ([3]; first compound 1 µM) was 0.499, the relative viability ([4]; first compound 0.01 µM) was 1.11 and the relative viability ([4]; first compound 0.03162 µM) was 1.2. For the same cell line, the relative viability ([4]; first compound 0.1 µM) was 1.01, the relative viability ([4]; first compound 0.3162 µM) was 0.92 and the relative viability ([4]; first compound 1 µM) was 0.936.

With COR-L23 the relative viability ([2]; first compound 0.01 µM) was 0.202, the relative viability ([2]; first compound 0.03162 µM) was 0.18 and the relative viability ([2]; first compound 0.1 µM) was 0.211. The relative viability ([2]; first compound 0.3162 µM) was 0.205, the relative viability ([2]; first compound 1 µM) was 0.203 and the relative viability ([3]; first compound 0.01 µM) was 0.782. It also gave a relative viability ([3]; first compound 0.03162 µM) of 0.722, a relative viability ([3]; first compound 0.1 µM) of 0.681 and a relative viability ([3]; first compound 0.3162 µM) of 0.756. The relative viability ([3]; first compound 1 µM) was 0.642, the relative viability ([4]; first compound 0.01 µM) was 1.07 and the relative viability ([4]; first compound 0.03162 µM) was 1.15. The relative viability ([4]; first compound 0.1 µM) was 0.937, the relative viability ([4]; first compound 0.3162 µM) was 0.921 and the relative viability ([4]; first compound 1 µM) was 0.851.

In the case of NCI-H661, the relative viability ([2]; first compound 0.01 µM) is reported as 0.869, the relative viability ([2]; first compound 0.03162 µM) is reported as 0.941 and the relative viability ([2]; first compound 0.1 µM) is reported as 0.885. For the same cell line, the relative viability ([2]; first compound 0.3162 µM) was 0.832, the relative viability ([2]; first compound 1 µM) was 0.833 and the relative viability ([3]; first compound 0.01 µM) was 0.69. For the same cell line, the relative viability ([3]; first compound 0.03162 µM) was 0.668, the relative viability ([3]; first compound 0.1 µM) was 0.641 and the relative viability ([3]; first compound 0.3162 µM) was 0.774. The relative viability ([3]; first compound 1 µM) was 0.784, the relative viability ([4]; first compound 0.01 µM) was 1.01 and the relative viability ([4]; first compound 0.03162 µM) was 1.04. The relative viability ([4]; first compound 0.1 µM) was 0.989, the relative viability ([4]; first compound 0.3162 µM) was 0.993 and the relative viability ([4]; first compound 1 µM) was 0.92.
